Marks after values point to notes of the source that are not given here.
Tests used:
RR468 [1] = biological target: T1, RR468 (Thermotoga maritima, UniProt Q9WYT9, V13P/L14I/I17M/N21V); assay: autophosphorylation from […]acetyl phosphate; type: biochemical; details: labelled compound; 5 mM MgCl2, pH 8.0, room temperature, 1 hour
RR468 [2] = biological target: T1, RR468; details: free RR468*; phosphomimetic; NaF/BeSO4/MgCl2, pH 4.6
crystal structure = biological target: the molecule itself; assay: crystal structure

CC(=O)OP(=O)(O)O [acetyl-phosphate]
autophosphorylation from [32P]acetyl phosphate (RR468 [1]): RR468* autophosphorylates more poorly than RR468 using this method

[F][Be-]([F])[F] [BeF3^−]
X-ray crystal structure, 1.80 Å (RR468 [2]): the free forms of HK853* (HKf*) bound to ADP and RR468* (RRf*) bound to BeF3^−

B1: HK853, wild type, cytoplasmic portion (enzyme, Thermotoga maritima)
chain: VENVTESKELERLKRIDRMKTEFIANISHELRTPLTAIKAYAETIYNSLGELDLSTLKEFLEVIIDQSNHLENLLNELLDFSRLERKSLQINREKVDLCDLVESAVNAIKEFASSHNVNVLFESNVPCPVEAYIDPTRIRQVLLNLLNNGVKYSKKDAPDKYVKVILDEKDGGVLIIVEDNGIGIPDHAKDRIFEQFYRVDSSLTYEVPGTGLGLAITKEIVELHGGRIWVESEVGKGSRFFVWIPKDRAGEDNRQDN
stoichiometry N (crystal structure): 2

Source: article PMC3821218 (Structure (London, England : 1993), 2013)
